According to ChEMBL document CHEMBL5715954, “Silencing c-Myc translation as a therapeutic strategy through targeting PI3Kδ and CK1ε in hematological malignancies” (Blood, 2017):

Experiments:
Set-up in all cases: scale not given: the % may be the effect or the level left
[1] = molecular target: RAC-gamma serine/threonine-protein kinase (Homo sapiens) (UniProt Q9Y243); assay: Inhibition of human AKT3 assessed as enzyme activity at 1 uM using KGSGSGRPRTSSFAEG as substrate preincubated for 20 mins followed by [gamma-33P]-ATP addition and measured after 120 mins by radiometric Hot-SpotSM Kinase assay relative to control
Sequence of RAC-gamma serine/threonine-protein kinase (Homo sapiens) (Q9Y243 whole entry): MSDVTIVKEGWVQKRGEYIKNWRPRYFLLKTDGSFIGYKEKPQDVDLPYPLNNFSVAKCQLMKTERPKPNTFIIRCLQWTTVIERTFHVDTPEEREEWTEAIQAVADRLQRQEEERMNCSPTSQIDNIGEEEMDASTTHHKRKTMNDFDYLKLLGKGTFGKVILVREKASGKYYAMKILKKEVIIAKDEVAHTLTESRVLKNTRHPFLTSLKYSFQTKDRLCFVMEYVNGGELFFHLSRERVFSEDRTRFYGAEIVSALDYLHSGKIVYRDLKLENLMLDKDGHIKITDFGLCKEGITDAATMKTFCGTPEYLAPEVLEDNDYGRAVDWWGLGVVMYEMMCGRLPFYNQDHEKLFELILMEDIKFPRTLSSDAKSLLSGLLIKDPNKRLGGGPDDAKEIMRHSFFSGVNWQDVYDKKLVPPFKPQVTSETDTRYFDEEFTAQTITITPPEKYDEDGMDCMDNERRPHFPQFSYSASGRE

[2] = molecular target: T1, Dual specificity mitogen-activated protein kinase kinase 4 (Homo sapiens) (UniProt P45985); assay: Inhibition of human MKK4 assessed as enzyme activity at 1 uM using JNK1 (K55M) as substrate preincubated for 20 mins followed by [gamma-33P]-ATP addition and measured after 120 mins by radiometric Hot-SpotSM Kinase assay relative to control
T1 sequence (whole entry): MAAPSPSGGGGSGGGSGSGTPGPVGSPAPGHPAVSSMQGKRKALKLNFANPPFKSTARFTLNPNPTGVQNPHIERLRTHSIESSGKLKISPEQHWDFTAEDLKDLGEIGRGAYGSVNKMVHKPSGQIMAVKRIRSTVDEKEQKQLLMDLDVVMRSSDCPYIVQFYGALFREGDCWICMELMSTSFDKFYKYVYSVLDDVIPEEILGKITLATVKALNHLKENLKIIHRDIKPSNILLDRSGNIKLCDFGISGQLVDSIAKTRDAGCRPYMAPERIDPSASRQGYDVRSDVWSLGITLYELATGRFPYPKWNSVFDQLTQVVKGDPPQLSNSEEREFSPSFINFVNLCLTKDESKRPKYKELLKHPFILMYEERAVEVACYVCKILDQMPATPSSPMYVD

[3] = molecular target: Serine/threonine-protein kinase PAK 4 (Homo sapiens) (UniProt O96013); assay: Inhibition of human PAK4 assessed as enzyme activity at 1 uM using RRRLSFAEPG as substrate preincubated for 20 mins followed by [gamma-33P]-ATP addition and measured after 120 mins by radiometric Hot-SpotSM Kinase assay relative to control
Sequence of Serine/threonine-protein kinase PAK 4 (Homo sapiens) (O96013 whole entry, looked up): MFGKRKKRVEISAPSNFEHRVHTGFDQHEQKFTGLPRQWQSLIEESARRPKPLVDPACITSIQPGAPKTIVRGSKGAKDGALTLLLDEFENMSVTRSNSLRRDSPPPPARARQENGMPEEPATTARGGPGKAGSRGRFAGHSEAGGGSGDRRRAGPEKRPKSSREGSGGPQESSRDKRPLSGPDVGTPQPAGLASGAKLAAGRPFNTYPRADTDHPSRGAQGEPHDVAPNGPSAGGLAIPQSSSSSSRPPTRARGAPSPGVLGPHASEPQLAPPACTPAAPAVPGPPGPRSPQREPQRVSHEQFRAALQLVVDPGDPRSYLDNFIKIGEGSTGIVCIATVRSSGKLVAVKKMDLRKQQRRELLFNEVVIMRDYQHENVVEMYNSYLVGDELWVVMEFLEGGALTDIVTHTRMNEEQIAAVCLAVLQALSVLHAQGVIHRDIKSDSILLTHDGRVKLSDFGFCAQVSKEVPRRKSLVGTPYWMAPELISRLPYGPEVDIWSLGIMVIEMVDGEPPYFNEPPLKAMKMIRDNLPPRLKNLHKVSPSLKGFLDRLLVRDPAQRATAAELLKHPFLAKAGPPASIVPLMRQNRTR

[4] = molecular target: Tyrosine-protein kinase ABL1 (Homo sapiens) (UniProt P00519); assay: Inhibition of human ABL1 assessed as enzyme activity at 1 uM using EAIYAAPFAKKK as substrate preincubated for 20 mins followed by [gamma-33P]-ATP addition and measured after 120 mins by radiometric Hot-SpotSM Kinase assay relative to control
Sequence of Tyrosine-protein kinase ABL1 (Homo sapiens) (P00519 whole entry): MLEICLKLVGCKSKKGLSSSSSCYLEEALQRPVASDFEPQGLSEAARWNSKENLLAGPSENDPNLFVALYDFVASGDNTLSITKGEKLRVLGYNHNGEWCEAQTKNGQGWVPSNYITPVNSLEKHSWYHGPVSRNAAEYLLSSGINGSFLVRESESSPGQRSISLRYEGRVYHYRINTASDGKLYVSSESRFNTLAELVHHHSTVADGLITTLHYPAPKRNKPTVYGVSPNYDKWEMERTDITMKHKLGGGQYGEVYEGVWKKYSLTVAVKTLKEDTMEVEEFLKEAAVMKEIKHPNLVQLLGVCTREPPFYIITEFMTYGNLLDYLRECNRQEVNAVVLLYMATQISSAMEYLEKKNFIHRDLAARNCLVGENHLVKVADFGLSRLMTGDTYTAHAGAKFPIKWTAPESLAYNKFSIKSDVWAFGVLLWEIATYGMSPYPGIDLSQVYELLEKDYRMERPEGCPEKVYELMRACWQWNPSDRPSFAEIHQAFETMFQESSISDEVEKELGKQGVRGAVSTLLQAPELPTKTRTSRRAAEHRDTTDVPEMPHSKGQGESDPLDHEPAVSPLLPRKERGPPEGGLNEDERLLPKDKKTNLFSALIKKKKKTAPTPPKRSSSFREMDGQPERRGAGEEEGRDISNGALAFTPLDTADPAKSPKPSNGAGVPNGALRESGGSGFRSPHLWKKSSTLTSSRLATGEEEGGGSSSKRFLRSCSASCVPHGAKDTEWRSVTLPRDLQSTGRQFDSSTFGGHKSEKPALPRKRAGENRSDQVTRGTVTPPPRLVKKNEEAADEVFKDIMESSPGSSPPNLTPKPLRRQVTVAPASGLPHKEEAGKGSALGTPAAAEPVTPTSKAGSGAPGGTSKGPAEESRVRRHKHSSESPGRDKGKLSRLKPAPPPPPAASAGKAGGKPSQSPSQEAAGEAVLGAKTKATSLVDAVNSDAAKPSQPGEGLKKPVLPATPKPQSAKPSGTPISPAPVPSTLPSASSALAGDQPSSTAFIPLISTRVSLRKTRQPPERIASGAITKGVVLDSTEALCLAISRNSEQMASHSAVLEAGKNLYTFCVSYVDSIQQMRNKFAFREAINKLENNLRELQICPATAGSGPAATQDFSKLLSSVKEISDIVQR

[5] = molecular target: T2, Serine/threonine-protein kinase TAO2 (Homo sapiens) (UniProt Q9UL54); assay: Inhibition of human TAOK2 assessed as enzyme activity at 1 uM using myelin basic protein as substrate preincubated for 20 mins followed by [gamma-33P]-ATP addition and measured after 120 mins by radiometric Hot-SpotSM Kinase assay relative to control
T2 sequence (whole entry): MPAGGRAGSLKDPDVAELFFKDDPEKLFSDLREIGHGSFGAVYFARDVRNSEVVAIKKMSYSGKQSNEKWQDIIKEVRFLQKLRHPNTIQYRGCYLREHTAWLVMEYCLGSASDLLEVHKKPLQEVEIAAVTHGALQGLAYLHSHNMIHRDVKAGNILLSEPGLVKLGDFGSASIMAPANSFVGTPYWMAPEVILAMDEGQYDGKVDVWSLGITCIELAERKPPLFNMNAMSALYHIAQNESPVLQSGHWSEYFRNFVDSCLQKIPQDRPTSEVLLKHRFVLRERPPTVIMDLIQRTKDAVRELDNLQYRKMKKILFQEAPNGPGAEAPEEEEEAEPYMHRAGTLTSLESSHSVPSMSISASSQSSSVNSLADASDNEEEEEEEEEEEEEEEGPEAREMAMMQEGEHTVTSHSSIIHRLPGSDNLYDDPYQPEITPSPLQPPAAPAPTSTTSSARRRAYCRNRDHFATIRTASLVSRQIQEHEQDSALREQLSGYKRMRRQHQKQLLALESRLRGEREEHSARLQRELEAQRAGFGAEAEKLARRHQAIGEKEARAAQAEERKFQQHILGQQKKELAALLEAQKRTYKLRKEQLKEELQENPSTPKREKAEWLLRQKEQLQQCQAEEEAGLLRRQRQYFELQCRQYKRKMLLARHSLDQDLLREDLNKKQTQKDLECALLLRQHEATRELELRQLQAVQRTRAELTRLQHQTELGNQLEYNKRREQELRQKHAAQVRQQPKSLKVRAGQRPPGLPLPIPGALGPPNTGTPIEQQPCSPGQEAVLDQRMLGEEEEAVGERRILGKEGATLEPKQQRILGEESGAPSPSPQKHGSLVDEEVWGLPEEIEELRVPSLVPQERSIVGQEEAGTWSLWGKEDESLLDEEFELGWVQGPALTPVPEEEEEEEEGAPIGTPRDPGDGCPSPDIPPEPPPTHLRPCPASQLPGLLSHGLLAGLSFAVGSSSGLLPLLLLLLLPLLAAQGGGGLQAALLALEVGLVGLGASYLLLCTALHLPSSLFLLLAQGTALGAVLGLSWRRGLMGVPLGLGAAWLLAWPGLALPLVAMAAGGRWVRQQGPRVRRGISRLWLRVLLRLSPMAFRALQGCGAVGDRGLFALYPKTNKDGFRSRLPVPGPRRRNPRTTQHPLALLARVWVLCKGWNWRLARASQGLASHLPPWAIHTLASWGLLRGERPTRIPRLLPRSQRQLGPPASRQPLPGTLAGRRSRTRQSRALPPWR

CC[C@H](Nc1ncnc2[nH]cnc12)c1nc2cccc(F)c2c(=O)n1-c1ccccc1
Activity [1]: 102% | Activity [2]: 99.9% | Activity [3]: 95.9% | Activity [4]: 99.5% | Activity [5]: 96.7%

CC(C)Oc1ccc(-c2nn([C@@H](C)c3oc4ccc(F)cc4c(=O)c3-c3cccc(F)c3)c3ncnc(N)c23)cc1F [UMBRALISIB]
Activity [1]: 100% | Activity [2]: 98.7% | Activity [3]: 99.1% | Activity [4]: 95.1% | Activity [5]: 97.3%

C[C@H](Nc1ncnc2nc[nH]c12)c1cc2cccc(Cl)c2c(=O)n1-c1ccccc1
Activity [1]: 99.8% | Activity [2]: 96.9% | Activity [3]: 107% | Activity [4]: 97.2% | Activity [5]: 93.3%
